Assay results as given in PubChem BioAssay (NCI).
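Five compound concentrations were applied to cells in 96-well plates for 48 hours; endpoints were derived by simple linear interpolation of the resulting dose-response curve. The concentration for full growth arrest is given as TGI.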

How the values were obtained:
Test in all cases: NCI anticancer screen, dose series, 48 h
[1] = test system: 786-0 renal
[2] = test system: A498 renal
[3] = test system: A549 NSCLC
[4] = test system: ACHN renal
[5] = test system: BT-549 breast
[6] = test system: CAKI-1 renal
[7] = test system: CCRF-CEM leukemia
[8] = test system: COLO 205 colon
[9] = test system: DU-145 prostate
[10] = test system: EKVX NSCLC
[11] = test system: HCT-116 colon
[12] = test system: HCT-15 colon
[13] = test system: HL-60(TB) leukemia
[14] = test system: HOP-62 NSCLC
[15] = test system: HS 578T breast
[16] = test system: HT29 colon
[17] = test system: IGROV1 ovarian
[18] = test system: K-562 leukemia
[19] = test system: KM12 colon
[20] = test system: LOX IMVI melanoma
[21] = test system: M14 melanoma
[22] = test system: MALME-3M melanoma
[23] = test system: MCF7 breast
[24] = test system: MDA-MB-231 breast
[25] = test system: MDA-MB-435
[26] = test system: MDA-N
[27] = test system: MOLT-4 leukemia
[28] = test system: NCI-H226 lung
[29] = test system: NCI-H23 lung
[30] = test system: NCI-H522 lung
[31] = test system: NCI/ADR-RES ovarian
[32] = test system: OVCAR-5 ovarian
[33] = test system: OVCAR-8 ovarian
[34] = test system: PC-3 prostate
[35] = test system: RPMI-8226 leukemia
[36] = test system: RXF 393 renal
[37] = test system: SF-268 CNS
[38] = test system: SF-295 CNS
[39] = test system: SF-539 CNS
[40] = test system: SK-MEL-2 melanoma
[41] = test system: SK-MEL-28 melanoma
[42] = test system: SK-MEL-5 melanoma
[43] = test system: SK-OV-3 ovarian
[44] = test system: SN12C renal
[45] = test system: SNB-19 CNS
[46] = test system: SNB-75 CNS
[47] = test system: SW-620 colon
[48] = test system: T-47D breast
[49] = test system: TK-10 renal
[50] = test system: U251 CNS
[51] = test system: UACC-257 melanoma
[52] = test system: UACC-62 melanoma
[53] = test system: UO-31 renal
[54] = test system: HOP-92 NSCLC
[55] = test system: NCI-H460 lung
[56] = test system: OVCAR-3 ovarian
[57] = test system: OVCAR-4 ovarian
[58] = test system: SR leukemia

SMILES: CCCCCC/C=C\CCCCCCCCCc1cccc(OC)c1O
- TGI [1]: > 100 µM
- TGI [2]: > 100 µM
- TGI [3]: > 100 µM
- TGI [4]: > 100 µM
- TGI [5]: > 100 µM
- TGI [6]: > 100 µM
- TGI [7]: > 100 µM
- TGI [8]: > 100 µM
- TGI [9]: > 100 µM
- TGI [10]: > 100 µM
- TGI [11]: > 100 µM
- TGI [12]: > 100 µM
- TGI [13]: > 100 µM
- TGI [14]: > 100 µM
- TGI [15]: > 100 µM
- TGI [16]: > 100 µM
- TGI [17]: > 100 µM
- TGI [18]: > 100 µM
- TGI [19]: > 100 µM
- TGI [20]: > 100 µM
- TGI [21]: > 100 µM
- TGI [22]: > 100 µM
- TGI [23]: > 100 µM
- TGI [24]: > 100 µM
- TGI [25]: > 100 µM
- TGI [26]: > 100 µM
- TGI [27]: > 100 µM
- TGI [28]: > 100 µM
- TGI [29]: > 100 µM
- TGI [30]: > 100 µM
- TGI [31]: > 100 µM
- TGI [32]: > 100 µM
- TGI [33]: > 100 µM
- TGI [34]: > 100 µM
- TGI [35]: > 100 µM
- TGI [36]: > 100 µM
- TGI [37]: > 100 µM
- TGI [38]: > 100 µM
- TGI [39]: > 100 µM
- TGI [40]: > 100 µM
- TGI [41]: > 100 µM
- TGI [42]: > 100 µM
- TGI [43]: > 100 µM
- TGI [44]: > 100 µM
- TGI [45]: > 100 µM
- TGI [46]: > 100 µM
- TGI [47]: > 100 µM
- TGI [48]: > 100 µM
- TGI [49]: > 100 µM
- TGI [50]: > 100 µM
- TGI [51]: > 100 µM
- TGI [52]: > 100 µM
- TGI [53]: > 100 µM

SMILES: CCOC1Oc2ccccc2-c2nc(N)ncc21 (configuration not stated)
- TGI [1]: > 100 µM
- TGI [2]: 81.3 µM
- TGI [3]: > 100 µM
- TGI [4]: > 100 µM
- TGI [5]: > 100 µM
- TGI [6]: > 100 µM
- TGI [7]: > 100 µM
- TGI [8]: > 100 µM
- TGI [9]: > 100 µM
- TGI [10]: > 100 µM
- TGI [11]: > 100 µM
- TGI [12]: > 100 µM
- TGI [13]: 62.3 µM
- TGI [54]: > 100 µM
- TGI [15]: > 100 µM
- TGI [16]: > 100 µM
- TGI [17]: > 100 µM
- TGI [19]: > 100 µM
- TGI [20]: > 100 µM
- TGI [21]: > 100 µM
- TGI [23]: > 100 µM
- TGI [24]: > 100 µM
- TGI [25]: 66.3 µM
- TGI [26]: > 100 µM
- TGI [27]: > 100 µM
- TGI [28]: > 100 µM
- TGI [29]: > 100 µM
- TGI [55]: > 100 µM
- TGI [30]: 72.8 µM
- TGI [31]: > 100 µM
- TGI [56]: > 100 µM
- TGI [57]: > 100 µM
- TGI [32]: > 100 µM
- TGI [33]: > 100 µM
- TGI [34]: > 100 µM
- TGI [35]: > 100 µM
- TGI [36]: > 100 µM
- TGI [37]: > 100 µM
- TGI [38]: > 100 µM
- TGI [39]: > 100 µM
- TGI [40]: > 100 µM
- TGI [42]: > 100 µM
- TGI [43]: > 100 µM
- TGI [44]: > 100 µM
- TGI [45]: > 100 µM
- TGI [46]: > 100 µM
- TGI [58]: 61.2 µM
- TGI [47]: > 100 µM
- TGI [48]: > 100 µM
- TGI [49]: > 100 µM
- TGI [50]: > 100 µM
- TGI [51]: > 100 µM
- TGI [52]: > 100 µM
- TGI [53]: > 100 µM

SMILES: Cc1ccc([N+](=O)[O-])cc1S(=O)(=O)Nc1ccc(C2=NN(C(=O)c3ccccc3)C(c3ccccc3O)C2)cc1 (configuration not stated)
- TGI [1]: 27.9 µM
- TGI [2]: 60.6 µM
- TGI [3]: 74.4 µM
- TGI [4]: 47.8 µM
- TGI [5]: 30.7 µM
- TGI [6]: 91.9 µM
- TGI [7]: > 100 µM
- TGI [8]: 31.9 µM
- TGI [9]: 41.5 µM
- TGI [10]: 31 µM
- TGI [11]: 28.4 µM
- TGI [12]: 33.5 µM
- TGI [13]: 69.4 µM
- TGI [14]: 85.7 µM
- TGI [54]: 26.4 µM
- TGI [15]: > 100 µM
- TGI [16]: 62.5 µM
- TGI [17]: 25.4 µM
- TGI [18]: > 100 µM
- TGI [19]: > 100 µM
- TGI [20]: 45.6 µM
- TGI [21]: 48.6 µM
- TGI [22]: 31.5 µM
- TGI [23]: 26.7 µM
- TGI [24]: 37.7 µM
- TGI [25]: > 100 µM
- TGI [26]: 88.1 µM
- TGI [27]: 51.5 µM
- TGI [28]: 58.6 µM
- TGI [29]: 35.5 µM
- TGI [30]: 28.6 µM
- TGI [31]: > 100 µM
- TGI [56]: 56.8 µM
- TGI [57]: 42.8 µM
- TGI [32]: 60.6 µM
- TGI [33]: 57.7 µM
- TGI [34]: 29 µM
- TGI [35]: > 100 µM
- TGI [36]: 31.9 µM
- TGI [37]: 45.9 µM
- TGI [38]: > 100 µM
- TGI [39]: 38.4 µM
- TGI [40]: 46.4 µM
- TGI [41]: > 100 µM
- TGI [42]: 34.7 µM
- TGI [43]: 84.5 µM
- TGI [44]: 33 µM
- TGI [45]: > 100 µM
- TGI [46]: 41.4 µM
- TGI [58]: > 100 µM
- TGI [47]: > 100 µM
- TGI [48]: 30.1 µM
- TGI [49]: 28.5 µM
- TGI [50]: 80.1 µM
- TGI [51]: 51.8 µM
- TGI [53]: 76.6 µM

SMILES: C[C@]12O[C@@]3(C)O[C@@]3(C)[C@]3(C)O[C@]3(C)[C@@]1(C)O2
- TGI [1]: > 100 µM
- TGI [2]: > 100 µM
- TGI [3]: > 100 µM
- TGI [4]: > 100 µM
- TGI [5]: > 100 µM
- TGI [6]: > 100 µM
- TGI [8]: > 100 µM
- TGI [9]: > 100 µM
- TGI [10]: > 100 µM
- TGI [11]: > 100 µM
- TGI [12]: > 100 µM
- TGI [14]: > 100 µM
- TGI [54]: > 100 µM
- TGI [15]: > 100 µM
- TGI [16]: > 100 µM
- TGI [18]: > 100 µM
- TGI [19]: > 100 µM
- TGI [20]: > 100 µM
- TGI [21]: > 100 µM
- TGI [22]: > 100 µM
- TGI [23]: > 100 µM
- TGI [24]: > 100 µM
- TGI [25]: > 100 µM
- TGI [26]: > 100 µM
- TGI [27]: > 100 µM
- TGI [28]: > 100 µM
- TGI [29]: > 100 µM
- TGI [30]: > 100 µM
- TGI [31]: > 100 µM
- TGI [57]: > 100 µM
- TGI [32]: > 100 µM
- TGI [33]: > 100 µM
- TGI [34]: > 100 µM
- TGI [37]: > 100 µM
- TGI [38]: > 100 µM
- TGI [40]: > 100 µM
- TGI [41]: > 100 µM
- TGI [42]: > 100 µM
- TGI [43]: > 100 µM
- TGI [44]: > 100 µM
- TGI [45]: > 100 µM
- TGI [46]: 74.6 µM
- TGI [58]: > 100 µM
- TGI [48]: > 100 µM
- TGI [49]: > 100 µM
- TGI [50]: > 100 µM
- TGI [51]: > 100 µM
- TGI [52]: > 100 µM
- TGI [53]: > 100 µM
